{"source": "patent US20050069587A1", "about": "“Novel drug compositions and dosage forms of topiramate” (priority 2003, published 2005)", "key": {"[1]": {"experiment": "solubility of topiramate in de-ionized water and aqueous surfactant solutions", "format": "physicochemical", "settings": "for solubility: water, thermodynamic from solid", "experimental": "As defined herein, the solubility of a pharmaceutical agent is determined by adding the pharmaceutical agent to stirred or agitated de-ionized water maintained in a constant temperature bath at a temperature of 37° C. until no more pharmaceutical agent dissolves. The resulting solution saturated with the pharmaceutical agent is then filtered, typically under pressure through a 0.8-micron Millipore filter, and the concentration of the pharmaceutical agent in the solution is measured by any appropriate analytical method including gravimetric, ultraviolet spectrophometry, chromatography, and the like. The solubility of the pharmaceutical agent is measured at equilibrium.\nA drug composition of the present invention was prepared as follows. Aqueous solutions of five surfactants were prepared. The selected surfactants were four grades of ethylene oxide/propylene oxide/ethylene oxide (LUTROL grades F127, F87, F 108, and F68) and PEG-40 stearate (MYRJ 52). Solutions were made at concentrations of 1, 5, and 15 weight percent. The aqueous surfactant blends solutions were chilled as necessary to promote complete dissolution of the surfactant prior to drug solubility studies.\nThe aqueous surfactant solutions were equilibrated to constant temperature in a 37° C. water bath. Then, neat topiramate drug was added slowly with stirring in approximately 10 mg increments to the surfactant solutions until no more drug dissolved. A control sample of drug dissolved in de-ionized water without surfactant was included for comparison purposes. The resulting saturated solutions of drug were filtered through 0.8 micron filters and analyzed for drug concentration by refractive index chromatography. The resulting solubility values were plotted as a function of both surfactant concentration and the hydrophilic-lipophilic balance value of each surfactant. FIG. 6 was constructed from the solubility values obtained and HLB data for each surfactant utilized."}, "[2]": {"settings": "room temperature; cited from earlier work"}, "[3]": {"settings": "cited from earlier work"}}, "note": "Where two headings read alike, the source gives them in different places.", "data": [{"smiles": "CC1(C)O[C@@H]2[C@@H](CO[C@@]3(COS(N)(=O)=O)OC(C)(C)O[C@@H]23)O1", "note": "[topiramate, 2,3:4,5-bis-O-(1-methylethylidene)-β-D-fructopyranose sulfamate]", "values": [{"measurement": "drug solubility in the presence of each surfactant compared to the control", "setting": "[1]; LUTROL F127, F87, F108, F68, MYRJ 52 at 1, 5, 15 weight percent, 37° C.", "value": "higher"}, {"measurement": "solubility", "setting": "[1]; de-ionized water without surfactant, 37° C., read-out: solubility in de-ionized water without surfactant (control)", "value": 13, "unit": "mg/mL"}, {"measurement": "solubility", "setting": "[1]; de-ionized water, 37 °C, read-out: solubility in de-ionized water", "value": "~12", "unit": "mg/mL"}, {"measurement": "solubility", "setting": "[1]; neat drug, stated range, read-out: solubility of neat topiramate", "value": "9.8 to 13", "unit": "mg/mL"}, {"measurement": "solubility of topiramate in water", "setting": "[2]", "value": "about 9.8 mg/ml"}, {"measurement": "mean elimination half life", "setting": "[3]; in vivo", "value": "about 21 hours"}, {"measurement": "time to peak plasma drug concentrations", "setting": "[3]; oral administration of an immediate release dosage form", "value": "approximately 2 hours"}]}]}
